Experimental findings from patent US20250213701A1, “MEDICAMENT FOR TREATING HUMAN TUMOR BASED ON ERF3A-TARGETING PROTEOLYSIS MECHANISM” (SUZHOU DEGEN BIO-MEDICAL CO., LTD., priority 2022, published 2025) are described below.

Type in all cases: cell-based, human
For assay [1], the system named is VCaP cells. Briefly: Anti-proliferative toxicity against prostate cancer cell line Vcap (CCK8). The note with it: 3 days; for IC50: Homo sapiens, 72 h, CCK8. On the procedure:
(§1) Example 82: Detection of Anti-Proliferative Toxicity Against Prostate Cancer Cell Lines Vcap, 22Rv1, and PC-3
(§2) Vcap cells (purchased from the Cell Bank of the Chinese Academy of Sciences, Cat. No. SCSP-5034) were subcultured in a culture medium (DMEM medium+1% penicillin-streptomycin dual-antibiotic solution+10% fetal bovine serum) in an incubator at 5% carbon dioxide and 37° C. 22Rv1 cells (purchased from the Cell Bank of the Chinese Academy of Sciences, Cat. No. TCHu100) were subcultured in a culture medium (RPMI-1640 medium+1% penicillin-streptomycin dual-antibiotic solution+10% fetal bovine serum) in an incubator at 5% carbon dioxide and 37° C.
VCap cells were seeded at 20000 cells/well (90 μL) on a 96-well plate and cultured for 72 h. The original medium was removed, and a new medium of 90 μL was added.
(§3) 10 mM compound stock solutions were prepared in DMSO.
For VCap cells, the compound stock solution was diluted with DMSO to give DMSO solutions 1-10 at concentrations of 0 μM, 80 μM, 16 μM, 3.2 μM, 1.5 μM, 0.5 μM, 0.15 μM, 0.05 μM, 0.025 μM, and 0.0005 μM.
For Vcap cells, 2 μL of each of the above solutions 1-10 was added to 98 μL of Vcap medium to give mixed solutions 20-29 of the compound and the medium.
For Vcap cells, 10 μL of each of the above solutions 20-29 was added to the above cell seed solution to give a total volume of 100 μL (90 μL+10 μL), where the concentrations of the compound in wells were 0 μM, 0.16 μM, 0.032 μM, 0.006 μM, 0.003 μM, 0.001 μM, 0.0003 μM, 0.0001 μM, 0.00005 μM, and 0.00001 μM. All concentrations were in triplicate.
(§4) After the above-treated cells were cultured for 3 days, 10 μL of the CCK8 solution (DOJINDO, Cat. No. PF725) was added to each well. The plate was incubated in an incubator at 37° C. for 1-4 h and then detected on a microplate reader for the reading at 450 nm.

The subject of assay [2] is 22Rv1 cells. Kind of assay: Anti-proliferative toxicity against prostate cancer cell line 22Rv1 (CCK8). Conditions: 3 days; for IC50: Homo sapiens, 72 h, CCK8. How it is done: as §1, §2
22Rv1 cells were seeded at 5000 cells/well (90 μL) on a 96-well plate and cultured for 48 h.
as §3
(§5) For 22Rv1 cells and PC-3 cells, the compound stock solution was diluted with DMSO to give DMSO solutions 11-19 at concentrations of 0 μM, 500 μM, 100 μM, 20 μM, 4 μM, 0.8 μM, 0.16 μM, 0.032 μM, 0.0064 μM.
For 22Rv1 cells, 2 μL of each of the above solutions 11-19 was added to 98 μL of 22Rv1 medium to give mixed solutions 30-38 of the compound and the medium.
(§6) For 22Rv1 and PC-3 cells, 10 μL of each of the above solutions 30-38 or 39-47 was added to the above cell seed solution to give a total volume of 100 μL (90 μL+10 μL), where the concentrations of the compound in wells were 0 μM, 1.0 μM, 0.2 μM, 0.04 μM, 0.008 μM, 0.0016 μM, 0.00032 μM, 0.00006 μM, and 0.00001 μM. All concentrations were in triplicate.
as §4

Assay [3] deals with PC-3 cells. Kind of assay: Anti-proliferative toxicity against prostate cancer cell line PC-3 (CCK8). The note with it: Homo sapiens, 72 h, 3 days. How it is done: as §1
PC-3 cells (purchased from the Cell Bank of the Chinese Academy of Sciences, Cat. No. SCSP-532) were subcultured in a culture medium (F12K medium+1% penicillin-streptomycin dual-antibiotic solution+10% fetal bovine serum) in an incubator at 5% carbon dioxide and 37° C.
PC-3 cells were seeded at 4000 cells/well (90 μL) on a 96-well plate and cultured for 24 h.
as §3, §5
For PC-3 cells, 2 μL of each of the above solutions 11-19 was added to 98 μL of PC-3 medium to give mixed solutions 39-47 of the compound and the medium.
as §6, §4

Turning to `C[C@]12C=CC(=O)N[C@@H]1CC[C@@H]1[C@@H]2CC[C@]2(C)[C@@H](C(=O)Nc3cccc(OCCCNc4cccc5c4C(=O)N(C4CCC(=O)NC4=O)C5=O)c3)CC[C@@H]12` (stereo partly drawn) [C29, N-(3-((3-((4-(2-(3-(2,6-dioxopiperidine))-isoindole-1,3-dione))amino)propyl)oxy)phenyl)-3-oxo-4-aza-5α-androst-1-ene-17β-carboxamide], the “Anti-proliferative toxicity data in VCaP cells” value is 0.4% in assay [1] (0.00005 μM); 25.8% in assay [1] (0.00010 μM); 40.3% in assay [1] (0.00030 μM); 70.8% in assay [1] (0.00100 μM); 80.1% in assay [1] (0.00300 μM); 88.3% in assay [1] (0.00600 μM). In addition, the “Anti-proliferative toxicity data in VCaP cells” value in assay [1] (0.03200 μM) was determined as 89.4%; in assay [1] (0.16000 μM), 90.0%. The IC50 (usually the concentration that gives 50% inhibition) was 0.1 to 10 nM in assay [1], 0.1 to 10 nM in assay [2] and more than 1000 nM in assay [3]. Besides, the “Anti-proliferative toxicity data in 22Rv1 cells” value in assay [2] (0.00006 μM) is given as 0.2%; in assay [2] (0.00032 μM) it was 5.6%; in assay [2] (0.00160 μM), 27.6%; in assay [2] (0.00800 μM) it was 64.2%; in assay [2] (0.04000 μM), 70.8%; in assay [2] (0.20000 μM) it was 72.4%. Moreover, the “Anti-proliferative toxicity data in 22Rv1 cells” value in assay [2] (1.00000 μM) came to 73.5%.

`C[C@]12C=CC(=O)N[C@@H]1CC[C@@H]1[C@@H]2CC[C@]2(C)[C@@H](C(=O)Nc3cccc(OCCCNc4ccc5c(c4)C(=O)N(C4CCC(=O)NC4=O)C5=O)c3)CC[C@@H]12` (stereo partly drawn) [C30, N-(3-((3-((5-(2-(3-(2,6-dioxopiperidine))-isoindole-1,3-dione))amino)propyl)oxy)phenyl)-3-oxo-4-aza-5α-androst-1-ene-17β-carboxamide]: the IC50 in assay [1], in assay [2] and in assay [3] was more than 1000 nM each time.

On to `C[C@]12C=CC(=O)N[C@@H]1CC[C@@H]1[C@@H]2CC[C@]2(C)[C@@H](C(=O)Nc3cccc(OCCCCNc4cccc5c4C(=O)N(C4CCC(=O)NC4=O)C5=O)c3)CC[C@@H]12` (stereo partly drawn) [C31, N-(3-((4-((4-(2-(3-(2,6-dioxopiperidine))-isoindole-1,3-dione))amino)butyl)oxy)phenyl)-3-oxo-4-aza-5α-androst-1-ene-17β-carboxamide], for which the IC50 in assay [1], in assay [2] and in assay [3] was more than 1000 nM throughout.

For `C[C@]12C=CC(=O)N[C@@H]1CC[C@@H]1[C@@H]2CC[C@]2(C)[C@@H](C(=O)Nc3cccc(OCCCCNc4ccc5c(c4)C(=O)N(C4CCC(=O)NC4=O)C5=O)c3)CC[C@@H]12` (stereo partly drawn) [C32, N-(3-((4-((5-(2-(3-(2,6-dioxopiperidine))-isoindole-1,3-dione))amino)butyl)oxy)phenyl)-3-oxo-4-aza-5α-androst-1-ene-17β-carboxamide], the IC50 in assay [1], in assay [2] and in assay [3] was more than 1000 nM in each case.

As for `C[C@]12C=CC(=O)N[C@@H]1CC[C@@H]1[C@@H]2CC[C@]2(C)[C@@H](C(=O)Nc3cccc(OCCCCCNc4cccc5c4C(=O)N(C4CCC(=O)NC4=O)C5=O)c3)CC[C@@H]12` (stereo partly drawn) [C33, N-(3-((5-((4-(2-(3-(2,6-dioxopiperidine))-isoindole-1,3-dione))amino)pentyl)oxy)phenyl)-3-oxo-4-aza-5α-androst-1-ene-171β-carboxamide], the IC50 in assay [1], in assay [2] and in assay [3] was more than 1000 nM throughout.

Regarding `C[C@]12C=CC(=O)N[C@@H]1CC[C@@H]1[C@@H]2CC[C@]2(C)[C@@H](C(=O)Nc3cccc(OCCCCCCNc4cccc5c4C(=O)N(C4CCC(=O)NC4=O)C5=O)c3)CC[C@@H]12` (stereo partly drawn) [C35, N-(3-((6-((4-(2-(3-(2,6-dioxopiperidine))-isoindole-1,3-dione))amino)hexyl)oxy)phenyl)-3-oxo-4-aza-5α-androst-1-ene-17β-carboxamide], the IC50 in assay [1], in assay [2] and in assay [3] was more than 1000 nM throughout.

In the case of `C[C@]12C=CC(=O)N[C@@H]1CC[C@@H]1[C@@H]2CC[C@]2(C)[C@@H](C(=O)Nc3cccc(OCCCCCCNc4ccc5c(c4)C(=O)N(C4CCC(=O)NC4=O)C5=O)c3)CC[C@@H]12` (stereo partly drawn) [C36, N-(3-((6-((5-(2-(3-(2,6-dioxopiperidine))-isoindole-1,3-dione))amino)hexyl)oxy)phenyl)-3-oxo-4-aza-5α-androst-1-ene-17β-carboxamide], the IC50 in assay [1], in assay [2] and in assay [3] was more than 1000 nM each time.

In the case of `C[C@]12C=CC(=O)N[C@@H]1CC[C@@H]1[C@@H]2CC[C@]2(C)[C@@H](C(=O)Nc3cccc(OCCCCCCCNc4cccc5c4C(=O)N(C4CCC(=O)NC4=O)C5=O)c3)CC[C@@H]12` (stereo partly drawn) [C37, N-(3-((7-((4-(2-(3-(2,6-dioxopiperidine))-isoindole-1,3-dione))amino)heptyl)oxy)phenyl)-3-oxo-4-aza-5α-androst-1-ene-17β-carboxamide], the half-maximal inhibitory concentration (IC50) in assay [1], in assay [2] and in assay [3] was more than 1000 nM in each case.

Consider `C[C@]12C=CC(=O)N[C@@H]1CC[C@@H]1[C@@H]2CC[C@]2(C)[C@@H](C(=O)Nc3cccc(OCCCCCCCCNc4cccc5c4C(=O)N(C4CCC(=O)NC4=O)C5=O)c3)CC[C@@H]12` (stereo partly drawn) [C39, N-(3-((8-((4-(2-(3-(2,6-dioxopiperidine))-isoindole-1,3-dione))amino)octyl)oxy)phenyl)-3-oxo-4-aza-5α-androst-1-ene-17β-carboxamide], for which the IC50 in assay [1], in assay [2] and in assay [3] was more than 1000 nM each time.

For the molecule `C[C@]12C=CC(=O)N[C@@H]1CC[C@@H]1[C@@H]2CC[C@]2(C)[C@@H](C(=O)Nc3cccc(OCCCCCCCCNc4ccc5c(c4)C(=O)N(C4CCC(=O)NC4=O)C5=O)c3)CC[C@@H]12` (stereo partly drawn) [C40, N-(3-((8-((5-(2-(3-(2,6-dioxopiperidine))-isoindole-1,3-dione))amino)octyl)oxy)phenyl)-3-oxo-4-aza-5α-androst-1-ene-17β-carboxamide], the figures for the IC50 in assay [1], in assay [2] and in assay [3] were 10 to 1000 nM, more than 1000 nM and more than 1000 nM, respectively.

Take `C[C@]12C=CC(=O)N[C@@H]1CC[C@@H]1[C@@H]2CC[C@]2(C)[C@@H](C(=O)Nc3cccc(OCCCNc4cccc5c4CN(C4CCC(=O)NC4=O)C5=O)c3)CC[C@@H]12` (stereo partly drawn) [C41, N-(3-((3-((4-(2-(3-(2,6-dioxopiperidine))-1-oxo-2,3-dihydro-1H-isoindol))amino)propyl)oxy)phenyl)-3-oxo-4-aza-5α-androst-1-ene-17β-carboxamide]: the IC50 in assay [1] was 0.1 to 10 nM; in assay [2], 0.1 to 10 nM; in assay [3] it was more than 1000 nM.
